Assays:
Carbonic anhydrase 9 [1] = molecular target: T1, Carbonic anhydrase 9 (Homo sapiens, UniProt Q16790); conditions: at 0.1 µM
Description: Inhibition of human carbonic anhydrase 9 at 10^-7 M preincubated for 15 mins by stopped flow CO2 hydration method relative to control

Carbonic anhydrase 9 [2] = molecular target: T1, Carbonic anhydrase 9; conditions: at 0.001 µM
Description: Inhibition of human carbonic anhydrase 9 at 10^-9 M preincubated for 15 mins by stopped flow CO2 hydration method relative to control

[3] = molecular target: Carbonic anhydrase 12 (Homo sapiens) (UniProt O43570); conditions: at 0.1 µM
Description: Inhibition of human carbonic anhydrase 12 at 10^-7 M preincubated for 15 mins by stopped flow CO2 hydration method relative to control

Carbonic anhydrase 9 [4] = molecular target: T1, Carbonic anhydrase 9; conditions: at 0.01 µM
Description: Inhibition of human carbonic anhydrase 9 at 10^-8 M preincubated for 15 mins by stopped flow CO2 hydration method relative to control

[5] = molecular target: Carbonic anhydrase 12 (Homo sapiens) (UniProt O43570); conditions: at 0.01 µM
Description: Inhibition of human carbonic anhydrase 12 at 10^-8 M preincubated for 15 mins by stopped flow CO2 hydration method relative to control

[6] = molecular target: Carbonic anhydrase 12 (Homo sapiens) (UniProt O43570); conditions: at 1 µM
Description: Inhibition of human carbonic anhydrase 12 at 10^-6 M preincubated for 15 mins by stopped flow CO2 hydration method relative to control

Carbonic anhydrase 9 [7] = molecular target: T1, Carbonic anhydrase 9; conditions: at 1 µM
Description: Inhibition of human carbonic anhydrase 9 at 10^-6 M preincubated for 15 mins by stopped flow CO2 hydration method relative to control

[8] = molecular target: Carbonic anhydrase 12 (Homo sapiens) (UniProt O43570); conditions: at 0.001 µM
Description: Inhibition of human carbonic anhydrase 12 at 10^-9 M preincubated for 15 mins by stopped flow CO2 hydration method relative to control

Carbonic anhydrase 9 [9] = molecular target: T1, Carbonic anhydrase 9
Description: Inhibition of human carbonic anhydrase 9 preincubated for 15 mins by stopped flow CO2 hydration method

Carbonic anhydrase 1 = Carbonic anhydrase 1 (Homo sapiens, UniProt P00915); experiment: Inhibition of human carbonic anhydrase 1 preincubated for 15 mins by stopped flow CO2 hydration method
Chain of Carbonic anhydrase 1 (P00915 whole entry): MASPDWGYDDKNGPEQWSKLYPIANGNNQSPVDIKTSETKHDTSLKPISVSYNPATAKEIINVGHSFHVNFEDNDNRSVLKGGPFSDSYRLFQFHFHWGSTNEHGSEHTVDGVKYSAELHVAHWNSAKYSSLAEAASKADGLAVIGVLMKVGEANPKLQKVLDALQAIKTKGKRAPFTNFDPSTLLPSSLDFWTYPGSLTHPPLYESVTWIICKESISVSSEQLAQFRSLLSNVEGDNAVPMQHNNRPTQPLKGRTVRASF

Chain of Carbonic anhydrase 12 (Homo sapiens) (O43570 whole entry): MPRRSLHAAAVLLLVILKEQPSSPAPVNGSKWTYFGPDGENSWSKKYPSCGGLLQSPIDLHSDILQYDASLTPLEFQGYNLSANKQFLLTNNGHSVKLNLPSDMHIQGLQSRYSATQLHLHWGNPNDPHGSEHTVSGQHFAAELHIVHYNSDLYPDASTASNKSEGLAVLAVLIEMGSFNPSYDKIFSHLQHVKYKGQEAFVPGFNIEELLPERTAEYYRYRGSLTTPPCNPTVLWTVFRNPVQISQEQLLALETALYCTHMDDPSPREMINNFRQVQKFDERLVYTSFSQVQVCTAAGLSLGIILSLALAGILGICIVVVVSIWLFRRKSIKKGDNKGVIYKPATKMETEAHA

## NS(=O)(=O)c1ccc(NC(=O)N2CCN(C(=O)Cc3ccc(O)cc3)CC2)cc1
Carbonic anhydrase 9 [1]
  inhibition: 48%
Carbonic anhydrase 9 [2]
  inhibition: 34%
[3]
  inhibition: 49%
Carbonic anhydrase 9 [4]
  inhibition: 45%
[5]
  inhibition: 46%
[6]
  inhibition: 58%
Carbonic anhydrase 9 [7]
  inhibition: 52%
[8]
  inhibition: 33%

## NS(=O)(=O)c1ccc(NC(=O)N2CCN(C(=O)COc3ccc(Cl)cc3Cl)CC2)cc1
Carbonic anhydrase 9 [1]
  inhibition: 51%
Carbonic anhydrase 9 [2]
  inhibition: 33%
[3]
  inhibition: 48%
Carbonic anhydrase 9 [4]
  inhibition: 49%
[5]
  inhibition: 43%
[6]
  inhibition: 51%
Carbonic anhydrase 9 [7]
  inhibition: 56%
[8]
  inhibition: 29%

## COc1ccc(CC(=O)N2CCN(C(=O)Nc3ccc(S(N)(=O)=O)cc3)CC2)cc1
Carbonic anhydrase 9 [1]
  inhibition: 49%
Carbonic anhydrase 9 [2]
  inhibition: 36%
[3]
  inhibition: 49%
Carbonic anhydrase 9 [4]
  inhibition: 47%
[5]
  inhibition: 46%
[6]
  inhibition: 51%
Carbonic anhydrase 9 [7]
  inhibition: 55%
[8]
  inhibition: 34%

## NS(=O)(=O)c1ccc(NC(=O)N2CCN(c3ccc(Cl)cc3)CC2)cc1
Carbonic anhydrase 9 [9]
  Ki: 320 nM
Carbonic anhydrase 1
  Ki: > 10000 nM

## NS(=O)(=O)c1ccc(NC(=O)N2CCN(Cc3ccccc3)CC2)cc1
Carbonic anhydrase 9 [9]
  Ki: 462 nM

## NS(=O)(=O)c1ccc(NC(=O)N2CCN(c3cccc(Cl)c3)CC2)cc1
Carbonic anhydrase 9 [9]
  Ki: 233 nM

## COc1cccc(N2CCN(C(=O)Nc3ccc(S(N)(=O)=O)cc3)CC2)c1
Carbonic anhydrase 9 [9]
  Ki: 39.6 nM

## COc1ccccc1N1CCN(C(=O)Nc2ccc(S(N)(=O)=O)cc2)CC1
Carbonic anhydrase 9 [9]
  Ki: 237 nM

## NS(=O)(=O)c1ccc(NC(=O)N2CCN(C(=O)Cc3ccccc3)CC2)cc1
Carbonic anhydrase 9 [1]
  inhibition: 49%
Carbonic anhydrase 9 [2]
  inhibition: 38%
[3]
  inhibition: 47%
Carbonic anhydrase 9 [4]
  inhibition: 44%
[5]
  inhibition: 44%
[6]
  inhibition: 51%
Carbonic anhydrase 9 [7]
  inhibition: 54%
[8]
  inhibition: 26%

## NS(=O)(=O)c1ccc(NC(=O)N2CCN(c3ccccn3)CC2)cc1
Carbonic anhydrase 9 [9]
  Ki: 487 nM

## NS(=O)(=O)c1ccc(NC(=O)N2CCN(C(=O)COc3ccc(Cl)cc3)CC2)cc1
Carbonic anhydrase 9 [1]
  inhibition: 48%
Carbonic anhydrase 9 [2]
  inhibition: 36%
[3]
  inhibition: 49%
Carbonic anhydrase 9 [4]
  inhibition: 47%
[5]
  inhibition: 47%
[6]
  inhibition: 52%
Carbonic anhydrase 9 [7]
  inhibition: 52%
[8]
  inhibition: 30%

## NS(=O)(=O)c1ccc(NC(=O)N2CCN(C(=O)COc3ccccc3)CC2)cc1
Carbonic anhydrase 9 [1]
  inhibition: 53%
Carbonic anhydrase 9 [2]
  inhibition: 22%
[3]
  inhibition: 49%
Carbonic anhydrase 9 [4]
  inhibition: 35%
[5]
  inhibition: 46%
[6]
  inhibition: 51%
Carbonic anhydrase 9 [7]
  inhibition: 55%
[8]
  inhibition: 36%

## NS(=O)(=O)c1ccc(NC(=O)N2CCN(C(=O)Cc3ccc(Cl)cc3Cl)CC2)cc1
Carbonic anhydrase 9 [1]
  inhibition: 49%
Carbonic anhydrase 9 [2]
  inhibition: 38%
[3]
  inhibition: 48%
Carbonic anhydrase 9 [4]
  inhibition: 48%
[5]
  inhibition: 42%
[6]
  inhibition: 51%
Carbonic anhydrase 9 [7]
  inhibition: 54%
[8]
  inhibition: 34%

## NS(=O)(=O)c1ccc(NC(=O)N2CCN(C(=O)Cc3ccc(Cl)cc3)CC2)cc1
Carbonic anhydrase 9 [1]
  inhibition: 47%
Carbonic anhydrase 9 [2]
  inhibition: 37%
[3]
  inhibition: 47%
Carbonic anhydrase 9 [4]
  inhibition: 45%
[5]
  inhibition: 40%
[6]
  inhibition: 51%
Carbonic anhydrase 9 [7]
  inhibition: 51%
[8]
  inhibition: 34%

## NS(=O)(=O)c1ccc(NC(=O)N2CCN(c3nccc(C(F)(F)F)n3)CC2)cc1
Carbonic anhydrase 9 [9]
  Ki: 134 nM

## CC(C)(C)c1ccc(N2CCN(C(=O)Nc3ccc(S(N)(=O)=O)cc3)CC2)cc1
Carbonic anhydrase 9 [9]
  Ki: 129 nM

## COc1cc(CC(=O)N2CCN(C(=O)Nc3ccc(S(N)(=O)=O)cc3)CC2)cc(OC)c1O
Carbonic anhydrase 9 [1]
  inhibition: 52%
Carbonic anhydrase 9 [2]
  inhibition: 37%
[3]
  inhibition: 49%
Carbonic anhydrase 9 [4]
  inhibition: 41%
[5]
  inhibition: 45%
[6]
  inhibition: 51%
Carbonic anhydrase 9 [7]
  inhibition: 55%
[8]
  inhibition: 34%

## COc1ccc(N2CCN(C(=O)Nc3ccc(S(N)(=O)=O)cc3)CC2)cc1
Carbonic anhydrase 9 [9]
  Ki: 409 nM

## NS(=O)(=O)c1ccc(NC(=O)N2CCN(c3ccc(F)cc3)CC2)cc1
Carbonic anhydrase 9 [9]
  Ki: 9.9 nM

## NS(=O)(=O)c1ccc(NC(=O)N2CCN(Cc3ccc(Cl)cc3)CC2)cc1
Carbonic anhydrase 9 [9]
  Ki: 39.6 nM

## NS(=O)(=O)c1ccc(NC(=O)N2CCN(c3ncccc3C(F)(F)F)CC2)cc1
Carbonic anhydrase 9 [9]
  Ki: 280 nM

## NS(=O)(=O)c1ccc(NC(=O)N2CCN(c3ccccc3)CC2)cc1
Carbonic anhydrase 9 [9]
  Ki: 8.7 nM

## NS(=O)(=O)c1ccc(NC(=O)N2CCN(c3ccc(Cl)c(Cl)c3)CC2)cc1
Carbonic anhydrase 9 [9]
  Ki: 268 nM

## N#Cc1cccnc1N1CCN(C(=O)Nc2ccc(S(N)(=O)=O)cc2)CC1
Carbonic anhydrase 9 [9]
  Ki: 202 nM

## NS(=O)(=O)c1ccc(NC(=O)N2CCN(c3ccc(C(F)(F)F)cn3)CC2)cc1
Carbonic anhydrase 9 [9]
  Ki: 514 nM

Source: ChEMBL document CHEMBL3608296, “Synthesis of sulfonamides incorporating piperazinyl-ureido moieties and their carbonic anhydrase I, II, IX and XII inhibitory activity” (Bioorg Med Chem Lett, 2015)
